# Experimental data taken from PubChem BioAssay (NCI).
# “And” between values parts separate entries of the source, which are not always exact repeats. Identical values can stand only once.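 Results reflect a 48-hour exposure of cells in 96-well plates to compound at five concentrations. GI50 marks 50% less growth. TGI is the concentration that stops growth completely.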
# Tests used:
# Experiment in all cases: DTP human tumour cell line panel, 48 h
# NCI-H226 lung = tested on: NCI-H226 lung
# SF-268 CNS = tested on: SF-268 CNS
# UACC-62 melanoma = tested on: UACC-62 melanoma
# SK-MEL-28 melanoma = tested on: SK-MEL-28 melanoma
# MOLT-4 leukemia = tested on: MOLT-4 leukemia
# TK-10 renal = tested on: TK-10 renal
# CAKI-1 renal = tested on: CAKI-1 renal
# NCI/ADR-RES ovarian = tested on: NCI/ADR-RES ovarian
# BT-549 breast = tested on: BT-549 breast
# EKVX NSCLC = tested on: EKVX NSCLC
Structure (SMILES),TGI (NCI-H226 lung) [µM],TGI (SF-268 CNS) [µM],TGI (UACC-62 melanoma) [µM],TGI (SK-MEL-28 melanoma),TGI (MOLT-4 leukemia),TGI (TK-10 renal) [µM],TGI (CAKI-1 renal),GI50 (NCI-H226 lung) [µM],GI50 (NCI/ADR-RES ovarian) [µM],TGI (NCI/ADR-RES ovarian) [µM],GI50 (SF-268 CNS) [µM],GI50 (UACC-62 melanoma) [µM],GI50 (SK-MEL-28 melanoma) [µM],GI50 (MOLT-4 leukemia) [µM],GI50 (TK-10 renal) [µM],GI50 (CAKI-1 renal) [µM],GI50 (BT-549 breast) [µM],TGI (BT-549 breast) [µM],GI50 (EKVX NSCLC) [µM],TGI (EKVX NSCLC)
C1CCOC2(CCC3(CC2)OCCCCO3)OC1,> 100,> 100,> 100,> 100 µM,> 100 µM,> 100,> 100 µM,–,–,–,–,–,–,–,–,–,–,–,–,–
FC(F)(F)c1ccc(-c2cnc(Cl)nc2NCc2cc(C(F)(F)F)cc(C(F)(F)F)c2)cc1,> 100,> 100,> 100,> 100 µM,> 100 µM,> 100,7.52 µM,2.61,2.98,> 100,3.86,3.34,3.93,3.94,3.16,2.1,5.59,> 100,–,–
CN(C)c1ccc(C(=C2C=CC(=[N+](C)C)C=C2)c2ccc(N(C)C)cc2)cc1,–,–,1,1.09 µM and 1.9 µM,2.41 µM and 0.543 µM,0.864,0.788 µM and 2.43 µM,–,0.41,2,–,0.261,0.219,0.297,0.162,0.249,0.18,0.621,0.149,1.41 µM and 1.5 µM
C=C1CCC2[C@@H](CCC3[C@]2(C)CCC[C@]3(C)C(=O)OC)C1CCO (stereo partly specified),32.1,29.1,27.5,28.1 µM,17.9 µM,34.1,24.9 µM,–,–,–,–,–,–,–,–,–,–,–,–,37.9 µM
C=C1CCc2occ(C)c2C2C1C1=C(CC(C)C1=O)C1OC12C (stereo unspecified),> 100,> 100,> 100,> 100 µM,> 100 µM,> 100,–,–,–,–,–,–,–,–,–,–,–,–,–,> 100 µM
C=CCNC(=O)NCCCC(NC(C)=O)C(=O)NCc1ccccc1 (stereo unspecified),> 100,> 100,> 100,> 100 µM,> 100 µM,> 100,> 100 µM,–,–,–,–,–,–,–,–,–,–,–,–,> 100 µM
CC(=O)O[C@H]1CC[C@@]2(C)[C@@H](CC[C@@H]3[C@@H]2CC[C@]2(C)C=C(C=O)C[C@@H]32)C1,> 100,11.2,–,13.5 µM,7.33 µM,–,98.1 µM,28.8,5.35,> 100,3.3,–,3.98,2.61,–,29.8,12.1,32.3,–,–
CCCC(Sc1ccccc1)P(=O)(c1ccccc1)c1ccccc1 (stereo unspecified),–,> 100,37,> 100 µM,52.2 µM,> 100,> 100 µM,–,–,–,–,–,–,–,–,–,–,–,–,84.1 µM
N.N.NCCCCCCN.O=C([O-])CC(=O)[O-].O=C([O-])CC(=O)[O-].[Pt+4].[Pt+4],> 100,> 100,> 100,> 100 µM,> 100 µM,> 100,> 100 µM,> 56.7,–,–,28.9,10.5,> 100,5.2,> 100,26.6,–,–,> 100,> 100 µM
CCCOc1nc(SCCC)nc2c1cnn2-c1ccccc1,> 100,> 100,> 100,> 100 µM,> 100 µM,–,> 100 µM,> 100,> 100,> 100,> 100,> 100,> 100,> 100,–,68.2,–,–,39.1,> 100 µM
C=CC1C(OC2OC(CO)C(O)C(O)C2O)OC=C(C(=O)OC)C1CC=O (stereo unspecified),> 100,> 100,> 100,> 100 µM,> 100 µM,–,–,–,–,–,–,–,–,–,–,–,–,–,–,> 100 µM
Cc1cn2c(/C=N/Nc3ccccn3)c(-c3ccc(Cl)c([N+](=O)[O-])c3)nc2s1,–,31.7,46.3,> 50 µM,–,47.3,> 50 µM,–,11.3,30.9,11.6,14.1,26.5,–,15.3,39,21.1,> 50,21.6,> 50 µM
CCC1CCc2c(OC)ccc(OCC(=O)O)c2C1=O (stereo unspecified),> 100,> 100,> 100,> 100 µM,> 100 µM,> 100,–,–,–,–,–,–,–,–,–,–,–,–,–,> 100 µM
CCN(CC)CC(C(=O)Nc1c(C)cccc1C)/C(C)=N\NC(=O)c1ccncc1 (stereo unspecified),> 100,> 100,–,> 100 µM,> 100 µM,> 100,> 100 µM,–,–,–,–,–,–,–,–,–,–,–,–,–
C/C=C/C=C/CCCCCCCCCCCCCC1(OC)C=CC(CC(=O)OC)OO1 (stereo unspecified),–,34,28,28.7 µM,33.8 µM,4.81,3.44 µM,–,–,–,–,–,–,7.97,2.26,1.6,–,–,5.69,17.5 µM
Cc1c(Cl)cccc1NC1=C(Cl)C(=O)N(Cc2ccccc2)C1=O,38.4,27,19.7,30.7 µM,43 µM,15.3,5.06 µM,12.1,5,20.9,6.88,6.15,15.1,10.1,2.87,1.11,–,–,–,–
O=C1CCC2(c3ccccc3)Nc3ncccc3N12 (stereo unspecified),> 100,> 100,> 100,> 100 µM,> 100 µM,> 100,> 100 µM,–,–,–,–,–,–,–,–,–,–,–,–,> 100 µM
COC(=O)c1cc(-c2cccn2C)c2c(c1C(=O)OC)c1ccccc1n2C,–,–,> 100,> 100 µM,29.3 µM,> 100,–,–,–,–,–,–,–,–,–,–,–,–,–,–
CCC(/C=C/c1ccccc1)=N\Nc1ccc(Cl)c(Cl)c1,72.7,> 100,31.5,> 100 µM,> 100 µM,> 100,> 100 µM,–,–,> 100,–,–,–,–,–,–,–,–,–,> 100 µM
CC(=O)NC1CC2Oc3ccc(C)cc3C(C)(O2)C1O (stereo unspecified),> 100,–,> 100,> 100 µM,> 100 µM,> 100,–,–,–,–,–,–,–,–,–,–,–,–,–,> 100 µM
